Test results as given in patent US8003631B2, “Composition and method for the treatment of tauopathies” (Tautatis, Inc., priority 2004, dated 2011).

Legend:
[1] = tested on: PHF-type tau hyperphosphorylation; assay: Titration of tau hyperphosphorylation inhibitors in okadaic acid-stimulated rat hippocampal brain slice model; type: cell-based; details: okadaic acid provocation of PHF-markers
Source text: Authentic PHF-type phosphorylation events virtually indistinguishable by all known molecular markers from what is seen in PHF-tau from human Alzheimer's disease brains is rapidly provoked in such brain slices by application of the phosphatase inhibitor okadaic acid (OA) [Gong et al., Brain Res. Brain Res. Protoc., 6, 134-140 (2001); WO 01/57535; WO 00/01699].
In okadaic acid-treated brain slices, most of the above pathological markers are modeled. For the detection of active inhibitor compounds, freshly prepared metabolically-active isolated slices, kept under constant oxygenation in a physiological buffer (artificial cerebrospinal fluid or Krebs-Ringer solution), are preincubated with a range of concentration of the compounds of general formula 1. The slices are then extracted with buffers stopping both kinase as well as phosphatase activities, and soluble supernatants of such tissue homogenates are then separated by SDS-PAGE and subjected to Western-blotting. […] The intensity of the signals can then be normalized to the amount of total tau in the sample by probing a sister blot with a phosphorylation insensitive tau antibody, followed by forming the intensity ratio of the respective phosphoepitope over total tau immunoreactivity which represent an accurate quantitative measure of the degree of phosphorylation defining a particular epitope. […]

[2] = cited from earlier work

Compound	activity in the brain slice hyperphosphorylation model [1]	brain/plasma ratio ([2]; concentration in brain over concentration in plasma at a given time point)	maximal oral bioavailability ([2]; rats, oral) [%]
CN[C@@H]1C[C@H]2O[C@@](C)([C@@H]1OC)n1c3ccccc3c3c4c(c5c6ccccc6n2c5c31)C(=O)NC4 [staurosporine]	inactive	–	–
CCSCc1ccc2c(c1)c1c3c(c4c5cc(CSCC)ccc5n5c4c1n2[C@H]1C[C@](O)(C(=O)OC)[C@]5(C)O1)CNC3=O [CEP-1347]	inactive	–	–
COC(=O)[C@@]1(O)C[C@H]2O[C@]1(C)n1c3ccccc3c3c4c(c5c6ccccc6n2c5c31)C(=O)NC4 [K252a]	–	below 1	13
